Data: patent publication US9957253B2, “Triaminopyrimidine compounds useful for preventing or treating malaria” (MMV MEDICINES FOR MALARIA VENTURE, priority 2014, dated 2018)
Where a name gives a salt, the structure may show the parent alone. Read-outs that look alike come from different tables or passages of the source.

Assays:
[1] = Pharmacokinetic studies (IVPK/POPK) in male Wistar rats; format: in vivo; details: Rat; for Oral ‘F’ / ½ life (PO PK): 5 mg/kg Examples 7 and 10, 10 mg/kg Example 13; for clearance / Vd: male, Wistar, IV bolus, 0.5 mg/kg Examples 7 and 10, 2 mg/kg Example 13; for clearance: read-out: CL blood; for Vd: read-out: Vss blood
Procedure: All in vivo studies were approved by the institutional animal ethics committee. Pharmacokinetics following IV bolus (IVPK) or oral administration (POPK) of compounds was determined in male Wistar rats or male Beagle dogs. For IVPK in rats, Example 7 and Example 10 were administered as solutions in 20% DMA, 80% phosphate-buffered saline and Example 13 was administered as a solution in 10% v/v NMP, 20% v/v DMA in saline. For POPK, Example 7 and Example 10 were administered as suspensions in 20% DMA, 80% phosphate buffered saline and Example 13 was administered as a suspension in 0.5% HPMC and 0.1% Tween 80 through an oral gavage. Example 13 was administered to dogs as a solution in 10% Ethanol, 30% PEG 400, 60% saline for IVPK and as a suspension in 0.5% HPMC, and 0.1% Tween 80 for POPK. Doses used for rat and dog PK were 0.5 mg/kg for Examples 7 and 10 or 2 mg/kg for Example 13 (IVPK). Doses of 5 mg/kg for Examples 7 and 10 were used during POPK. Doses of 10 mg/kg were used for Example 13 during POPK studies. Blood samples were collected at 8 to 13 time points (0, 0.0833, 0.25, 0.283, 0.333, 0.417, 0.75, 1.25, 3.25, 6.25, 12.25, 24.25 h for dog IVPK; 0, 0.25, 0.5, 1, 1.5, 2, 3, 4, 8, 12, 24, 32, 48 h for dog POPK; 0.083, 0.25, 0.5, 1, 2, 4, 7, 24 h for rat IVPK; 0.25, 1, 3, 6, 12, 24, 36, 48 h for rat POPK) after dosing. Blood (rat) or plasma (dog) samples were analysed by LC-MS/MS. PK parameters were estimated by non-compartmental analysis in Phoenix®.

[2] = Blood:Plasma (BP) ratio, human; format: in vitro ADME
human CYP 2C9 = human CYP 2C9 (Homo sapiens, UniProt P11712); test: Time dependent CYP inhibition assay, CYP 2C9; format: in vitro ADME
Sequence of human CYP 2C9 (P11712 whole entry): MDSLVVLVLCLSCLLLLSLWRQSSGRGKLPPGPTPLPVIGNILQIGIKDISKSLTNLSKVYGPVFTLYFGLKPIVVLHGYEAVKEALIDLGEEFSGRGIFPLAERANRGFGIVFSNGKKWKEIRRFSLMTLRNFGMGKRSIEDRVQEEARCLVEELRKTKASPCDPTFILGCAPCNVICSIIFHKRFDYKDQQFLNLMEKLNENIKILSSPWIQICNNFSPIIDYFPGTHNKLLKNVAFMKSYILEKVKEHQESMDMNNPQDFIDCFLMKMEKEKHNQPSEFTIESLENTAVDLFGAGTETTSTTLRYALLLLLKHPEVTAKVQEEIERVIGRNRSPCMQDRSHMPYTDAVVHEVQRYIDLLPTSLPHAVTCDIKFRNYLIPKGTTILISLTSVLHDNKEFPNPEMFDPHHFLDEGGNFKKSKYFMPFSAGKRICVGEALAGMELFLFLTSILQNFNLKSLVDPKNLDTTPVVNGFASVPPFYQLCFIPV

human CYP 2D6 = molecular target: T1, human CYP 2D6 (Homo sapiens, UniProt P10635); test: Time dependent CYP inhibition assay, CYP 2D6; format: in vitro ADME
T1 construct: Mixture of 180 μL of 20 mg/mL HLM and 90 μL of substrate cocktail solution; from tissue; host or cells: human liver microsomes (HLM)
T1 sequence (P10635 whole entry): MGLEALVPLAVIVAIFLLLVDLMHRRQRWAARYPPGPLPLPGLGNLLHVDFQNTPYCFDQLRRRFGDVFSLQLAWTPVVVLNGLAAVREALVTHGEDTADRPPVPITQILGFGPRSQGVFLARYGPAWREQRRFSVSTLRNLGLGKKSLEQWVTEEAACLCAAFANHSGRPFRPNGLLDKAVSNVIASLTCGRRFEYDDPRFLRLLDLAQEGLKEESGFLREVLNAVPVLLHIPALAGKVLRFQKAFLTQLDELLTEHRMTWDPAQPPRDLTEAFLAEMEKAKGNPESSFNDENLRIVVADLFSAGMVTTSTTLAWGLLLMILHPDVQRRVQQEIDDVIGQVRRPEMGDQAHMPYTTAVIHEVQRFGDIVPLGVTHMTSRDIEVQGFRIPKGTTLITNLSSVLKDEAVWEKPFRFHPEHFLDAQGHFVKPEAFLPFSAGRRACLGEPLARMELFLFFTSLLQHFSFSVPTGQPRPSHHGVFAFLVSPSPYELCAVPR

human CYP 1A2 = molecular target: T2, human CYP 1A2 (Homo sapiens, UniProt P05177); test: Time dependent CYP inhibition assay, CYP 1A2; format: in vitro ADME
T2 sequence (P05177 1-516): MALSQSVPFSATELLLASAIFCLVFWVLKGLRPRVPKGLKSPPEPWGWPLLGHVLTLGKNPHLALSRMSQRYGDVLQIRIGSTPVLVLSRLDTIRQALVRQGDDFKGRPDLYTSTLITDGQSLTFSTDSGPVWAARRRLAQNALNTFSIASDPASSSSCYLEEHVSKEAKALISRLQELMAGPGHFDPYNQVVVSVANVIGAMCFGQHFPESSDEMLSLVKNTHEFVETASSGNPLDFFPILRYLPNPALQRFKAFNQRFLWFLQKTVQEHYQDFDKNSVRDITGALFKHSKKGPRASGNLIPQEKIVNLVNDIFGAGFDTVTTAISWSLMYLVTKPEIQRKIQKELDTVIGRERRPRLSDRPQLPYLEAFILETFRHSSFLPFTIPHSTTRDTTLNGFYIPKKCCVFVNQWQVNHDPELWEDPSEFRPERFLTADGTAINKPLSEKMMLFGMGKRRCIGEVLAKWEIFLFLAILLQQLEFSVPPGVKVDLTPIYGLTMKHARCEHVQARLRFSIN

[3] = Prediction of hepatic blood clearance (well stirred model), dog
[4] = Plasma protein binding assay (equilibrium dialysis), dog; format: in vitro ADME
Procedure: Plasma Protein Binding Assay
Protein binding is measured using the equilibrium dialysis technique. Compound is added to 10% plasma giving a concentration of 20 μM and dialysed with isotonic buffer for 18 hours at 37° C. The plasma and buffer solutions are analysed using generic LCUVMS and the first apparent binding constant for the compound derived. The binding constant is then used to determine the % free in 100% plasma.

[5] = Blood:Plasma (BP) ratio, dog; format: in vitro ADME; details: 10 μM, 37° C., 30 min
Procedure: Determination of Blood:Plasma (BP) Ratio
The incubation plate and the dog blood/plasma was preheated at 37° C. for 10 minutes. 2 μL of working solution of each compound was added to 398 μL of dog reference plasma or blood to achieve a final concentration of 10 μM. Plates were incubated at 37° C. with shaking for 30 min. After incubation, the blood samples are spun for 10 min. at 4,000 rpm (37° C.) and the plasma samples were stored at 37° C. Aliquots (100 μL) of plasma separated from centrifuged whole blood samples and reference plasma samples were transferred into 96-well plates. 400 μL of cold acetonitrile was added to precipitate protein and release compound. After vortexing for 10 min., plates were centrifuged for 30 min. at 4,000 rpm. 250 μL of the supernatant was transferred to new 96-well plates and centrifuged again at 4,000 rpm for 30 min. 100 μL of the supernatant was used for analysis by LC-MS/MS.

hepatocytes = test: Metabolic stability assay (hepatocyte Clint), dog; format: in vitro ADME; details: 1 μM compound

| Structure (SMILES) | Oral ‘F’ [1] [%] | ½ life (PO PK) [1] [h] | clearance ([1]; in vivo) [mL/min/kg] | Vd ([1]; in vivo) [L/kg] | BP ratio [2] | IC50 (human CYP 2C9) [µM] | IC50 (human CYP 2D6) [µM] | IC50 (human CYP 1A2) [µM] | Predicted CLh blood [3] [mL/min/kg] | clearance ([1]; blood) [mL/min/kg] | Vd ([1]; blood) [L/kg] | Fup [4] | BP ratio [5] | Hep. Clint (hepatocytes) [μl/min/1E6] |
| --- | --- | --- | --- | --- | --- | --- | --- | --- | --- | --- | --- | --- | --- | --- |
| CCc1cc(Nc2ncc(N3CCN[C@H](C)C3)c(Nc3cc(C)n(C)n3)n2)nc(C)c1F [Example 7, (R)—N4-(1,5-dimethyl-1H-pyrazol-3-yl)-N2-(4-ethyl-5-fluoro-6-methylpyridin-2-yl)-5-(3-methylpiperazin-1-yl)pyrimidine-2,4-diamine dihydrochloride] | 31 | 10 | 26.6 | 12 | 1.3 | > 56 | > 56 | > 56 |  |  |  |  |  |  |
| Cc1nc(Nc2ncc(N3CCN[C@H](C)C3)c(Nc3cnn(C)n3)n2)cc(C2CC2)c1Cl [Example 10, (R)—N2-(5-chloro-4-cyclopropyl-6-methylpyridin-2-yl)-N4-(2-methyl-2H-1,2,3-triazol-4-yl)-5-(3-methylpiperazin-1-yl)pyrimidine-2,4-diamine dihydochloride] | 17 | 30 |  |  | 1.8 | > 56 | > 56 | > 56 | 12.70 | 22.5 | 9.7 | 0.04 | 1.7 | 5.1 |
| Cc1nc(Nc2ncc(N3CCN(C)[C@H](C)C3)c(Nc3cc(C)n(C)n3)n2)cc(C2CC2)c1F [Example 13, (R)—N2-(4-cyclopropyl-5-fluoro-6-methylpyridin-2-yl)-N4-(1,5-dimethyl-1H-pyrazol-3-yl)-5-(3,4-dimethylpiperazin-1-yl)pyrimidine-2,4-diamine] | 80 | 10 |  |  | 1.1 | > 56 | > 56 | > 56 | 20.80 | 9.8 | 7.9 | 0.04 | 1.35 | 9.3 |
